The values below are quoted from earlier work in US20240342131A1, “Multivitamin for Cystic Fibrosis Patients Undergoing Cystic Fibrosis Transmembrance Conductance Regulator Gene Modulator Therapy” (priority 2021, published 2024).

For the data set the following is noted: high doses.

With `O=C1O[C@H]([C@@H](O)CO)C(O)=C1O` [vitamin C], the side effect result is “secretory diarrhea”.
